From ChEMBL document CHEMBL5233278, “Recent Advances in the Medicinal Chemistry of Farnesoid X Receptor” (J Med Chem, 2021)
One block for each molecule: values may come before it.

Columns and labels:
Bile acid receptor [1] = biological target: T1, Bile acid receptor (Homo sapiens, UniProt Q96RI1); assay: Agonist activity at FXR in HEK293T cells by lanthascreen TR-FRET assay; format: cell-based
T1 sequence (Q96RI1 whole entry): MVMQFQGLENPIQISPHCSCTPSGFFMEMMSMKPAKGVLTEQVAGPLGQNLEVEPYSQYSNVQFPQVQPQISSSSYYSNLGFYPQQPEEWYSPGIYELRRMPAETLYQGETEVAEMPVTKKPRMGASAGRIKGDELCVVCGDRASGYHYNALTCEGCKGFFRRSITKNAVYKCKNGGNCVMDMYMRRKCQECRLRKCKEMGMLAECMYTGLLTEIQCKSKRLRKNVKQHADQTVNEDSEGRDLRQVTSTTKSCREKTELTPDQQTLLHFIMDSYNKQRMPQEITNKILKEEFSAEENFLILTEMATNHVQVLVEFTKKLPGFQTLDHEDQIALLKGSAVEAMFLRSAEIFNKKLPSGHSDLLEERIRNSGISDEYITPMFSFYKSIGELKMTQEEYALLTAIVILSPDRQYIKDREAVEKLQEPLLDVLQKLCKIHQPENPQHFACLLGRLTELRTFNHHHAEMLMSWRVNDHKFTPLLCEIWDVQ

[2] = biological target: Voltage-gated inwardly rectifying potassium channel KCNH2 (Homo sapiens, UniProt Q12809); assay: Inhibition of hERG; format: toxicity
[3] = Metabolic stability in human liver microsomes assessed as half life in presence of NADPH incubated up to 60 mins by LC-MS/MS analysis; format: ADME, Microsome
Bile acid receptor [4] = biological target: T1, Bile acid receptor; assay: Agonist activity at human FXR
[5] = biological target: Bile acid receptor (Homo sapiens) (UniProt Q96RI1); assay: Agonist activity at FXR in human HepG2 cells at 3 uM relative to control; conditions: filed as agonist
[6] = biological target: Bile acid receptor (Homo sapiens) (UniProt Q96RI1); assay: Agonist activity at FXR in human HepG2 cells coexpressing BSEP at 0.3 uM relative to control; conditions: filed as agonist
Bile acid receptor [7] = biological target: T1, Bile acid receptor; assay: Agonist activity at FXR (unknown origin) incubated for 180 mins by TR-FRET assay
Bile acid receptor [8] = biological target: T1, Bile acid receptor; assay: Agonist activity at FXR in HEK293T cells by steady-glo luciferase assay; format: cell-based
Bile acid receptor [9] = biological target: T1, Bile acid receptor; assay: Agonist activity at FXR in human HeLa cells by Dual-Glo luciferase assay; format: cell-based
Bile acid receptor [10] = biological target: T1, Bile acid receptor; assay: Agonist activity at FXR (unknown origin)
Bile acid receptor [11] = biological target: T1, Bile acid receptor; assay: Agonist activity at human GST-tagged FXR incubated for 1 hrs by alphascreen assay
Bile acid receptor [12] = biological target: T1, Bile acid receptor; assay: Agonist activity at FXR in HEK293T cells incubated for 24 hrs by Steady-Glo luciferase assay; format: cell-based
Bile acid receptor [13] = biological target: T1, Bile acid receptor; assay: Agonist activity at human FXR incubated for 24 hrs by luciferase reporter assay
[14] = AUC(0 to 24 hrs) in Sprague-Dawley rat serum at 1 mg/kg, iv measured up to 24 hrs by LC-MS-MS analysis; format: ADME, organism-based; parameters: dose 1 mg/kg, time < 24 hrs, route iv
[15] = AUC(0 to 24 hrs) in Sprague-Dawley rat liver at 5 mg/kg, po measured up to 24 hrs by LC-MS-MS analysis; format: ADME, organism-based; parameters: dose 5 mg/kg, time < 24 hrs, route po; conditions: in vivo
[16] = Cmax in Sprague-Dawley rat serum at 5 mg/kg, po measured up to 24 hrs by LC-MS-MS analysis; format: ADME, organism-based; parameters: dose 5 mg/kg, time < 24 hrs, route po
[17] = Cmax in Sprague-Dawley rat serum at 1 mg/kg, iv measured up to 24 hrs by LC-MS-MS analysis; format: ADME, organism-based; parameters: time < 24 hrs, dose 1 mg/kg, route iv
[18] = Cmax in Sprague-Dawley rat liver at 5 mg/kg, po measured up to 24 hrs by LC-MS-MS analysis; format: ADME, organism-based; parameters: time < 24 hrs, dose 5 mg/kg, route po
[19] = biological target: T2, Bile acid receptor (Homo sapiens) (UniProt Q96RI1); assay: Agonist activity at FXR in HEK293 cells assessed as maximum efficacy relative to control; format: cell-based; conditions: filed as agonist
T2 sequence (whole entry): T1 sequence (Q96RI1 whole entry)

[20] = AUC(0 to 24 hrs) in Sprague-Dawley rat serum at 5 mg/kg, po measured up to 24 hrs by LC-MS-MS analysis; format: ADME, organism-based; parameters: dose 5 mg/kg, time < 24 hrs, route po

Chain of Voltage-gated inwardly rectifying potassium channel KCNH2 (Q12809 whole entry): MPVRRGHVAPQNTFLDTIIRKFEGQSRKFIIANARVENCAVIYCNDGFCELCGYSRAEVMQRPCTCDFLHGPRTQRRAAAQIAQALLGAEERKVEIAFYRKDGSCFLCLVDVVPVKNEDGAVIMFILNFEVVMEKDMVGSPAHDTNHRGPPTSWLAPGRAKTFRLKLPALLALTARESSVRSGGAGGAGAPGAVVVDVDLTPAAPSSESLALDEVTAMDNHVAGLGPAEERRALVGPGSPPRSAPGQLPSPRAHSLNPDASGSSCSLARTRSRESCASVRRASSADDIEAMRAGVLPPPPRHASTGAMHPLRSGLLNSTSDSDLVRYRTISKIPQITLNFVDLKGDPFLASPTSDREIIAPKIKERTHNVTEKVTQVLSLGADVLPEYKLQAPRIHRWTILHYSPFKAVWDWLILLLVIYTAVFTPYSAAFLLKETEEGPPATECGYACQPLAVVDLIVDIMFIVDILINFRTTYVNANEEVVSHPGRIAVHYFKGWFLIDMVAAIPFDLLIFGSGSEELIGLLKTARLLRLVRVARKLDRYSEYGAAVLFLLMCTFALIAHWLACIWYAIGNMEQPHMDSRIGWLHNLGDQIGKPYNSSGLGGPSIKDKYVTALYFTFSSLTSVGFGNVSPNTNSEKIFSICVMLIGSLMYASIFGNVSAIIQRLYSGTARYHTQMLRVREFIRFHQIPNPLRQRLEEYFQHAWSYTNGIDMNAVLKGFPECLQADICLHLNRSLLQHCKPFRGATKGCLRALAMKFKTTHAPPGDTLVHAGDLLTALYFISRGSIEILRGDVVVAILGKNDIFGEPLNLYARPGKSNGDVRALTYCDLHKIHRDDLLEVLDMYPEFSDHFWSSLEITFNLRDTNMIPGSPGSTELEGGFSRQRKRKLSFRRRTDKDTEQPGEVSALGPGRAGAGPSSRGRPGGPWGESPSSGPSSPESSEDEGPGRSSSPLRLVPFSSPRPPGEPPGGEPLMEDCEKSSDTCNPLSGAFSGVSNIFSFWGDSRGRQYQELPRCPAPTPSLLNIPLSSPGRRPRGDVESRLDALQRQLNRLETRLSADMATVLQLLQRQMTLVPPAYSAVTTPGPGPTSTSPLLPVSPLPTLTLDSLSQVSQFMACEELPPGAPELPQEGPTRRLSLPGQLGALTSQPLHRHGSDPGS

EC50 (Bile acid receptor [1]): < 100 nM
SMILES: CCc1onc(-c2c(Cl)cccc2Cl)c1COc1ccc(C2(C)CC2c2ccc(C(=O)O)cc2)c(Cl)c1 (stereo unspecified)

SMILES: Cc1cc(OCc2c(-c3c(Cl)cccc3Cl)noc2C2CC2)ccc1C1=NOC(c2cc(C(=O)O)nn2C(C)C)C1 (stereo unspecified)
IC50 [2]: > 30000 nM

SMILES: O=C(O)c1ccc(-c2csc(N3[C@@H]4CC[C@H]3C[C@@H](OCc3c(-c5ccccc5OC(F)(F)F)noc3C3CC3)C4)n2)cc1C(F)(F)F
half-life [3]: 2.5 h

EC50 (Bile acid receptor [4]): < 30 nM
SMILES: CC(C)Oc1cc(C(=O)NS(=O)(=O)N2CCCC2)cc2sc(O[C@@H]3CO[C@H]4[C@H]3OC[C@H]4OCc3c(-c4c(Cl)cccc4Cl)noc3C3CC3)nc12

Activity [5]: 125%
SMILES: O=C(O)c1cc(F)c2nc(N3C[C@@H]4CC[C@H]3C[C@@H]4OCc3c(-c4ccccc4OC(F)(F)F)noc3C3CC3)sc2c1
Activity [6]: 84%

EC50 (Bile acid receptor [7]): 26.9 nM
SMILES: CS(=O)(=O)NC(=O)c1ccc(N2CCC3(CC2)CC(OCc2c(-c4ccccc4OC(F)(F)F)noc2C2CC2)CO3)nc1 (stereo unspecified)

EC50 (Bile acid receptor [8]): 10 nM
SMILES: O=C(O)c1ccc2c(c1)CN(C(=O)N1[C@@H]3CC[C@H]1C[C@@H](OCc1c(-c4c(Cl)cccc4Cl)noc1C1CC1)C3)C2

EC50 (Bile acid receptor [9]): 26 nM
SMILES: O=C(O)c1cccc(NC(=O)c2ccc(OCCCCc3ccccc3)cc2)c1

EC50 (Bile acid receptor [10]): 450 nM
SMILES: COc1cccc(-c2ccc(NC(=O)C3=C(C(=O)O)CCC3)c(F)c2)c1 [VIDOFLUDIMUS]

EC50 (Bile acid receptor [8]): 23 nM
SMILES: CCn1nc(C(=O)O)cc1C1CC(c2ccc(OCc3c(-c4c(Cl)cccc4Cl)noc3C3CC3)cc2C)=NO1 (stereo unspecified)
IC50 [2]: > 30000 nM

SMILES: Cc1cc(OCc2c(-c3c(Cl)cccc3Cl)noc2C2CC2)ccc1C1=NOC(c2cc(C(=O)O)ccn2)C1 (stereo unspecified)
IC50 [2]: > 30000 nM

EC50 (Bile acid receptor [4]): < 30 nM
SMILES: CC(C)Oc1cc(C(=O)NS(=O)(=O)N2CCCCC2)cc2sc(O[C@@H]3CO[C@H]4[C@H]3OC[C@H]4OCc3c(-c4c(Cl)cccc4Cl)noc3C3CC3)nc12

EC50 (Bile acid receptor [11]): 9 nM
SMILES: O=C1CCc2cc(OCc3c(-c4c(Cl)cccc4Cl)noc3C3CC3)ccc2N1c1ncc(O)cc1F

EC50 (Bile acid receptor [12]): 205 nM
SMILES: CC(C)COc1ccc(-c2nnc(-c3ccc(C(=O)O)cc3)o2)cc1

EC50 (Bile acid receptor [10]): < 50 nM
SMILES: O=C(O)c1ccc(-c2nc(N3[C@@H]4CC[C@H]3C[C@@H](OCc3c(-c5c(Cl)cccc5Cl)noc3C3CC3)C4)no2)cc1

EC50 (Bile acid receptor [8]): 10 nM
SMILES: Cc1cc(OCc2c(-c3c(Cl)cccc3Cl)noc2C2CC2)ccc1C1=NOC(c2cc(C(=O)O)nn2C)C1 (stereo unspecified)
IC50 [2]: > 30000 nM

SMILES: CC[C@H]1[C@@H](O)[C@@H]2[C@H](CC[C@]3(C)[C@@H]([C@H](C)CCNC(=O)NS(=O)(=O)c4ccc(C(C)(C)C)cc4)CC[C@@H]23)[C@@]2(C)CC[C@@H](O)[C@H](F)[C@@H]12
EC50 (Bile acid receptor [13]): 19 nM

SMILES: O=S(O)c1cc(F)c2nc(N3[C@@H]4CC[C@H]3C[C@@H](OCc3c(-c5ccccc5OC(F)(F)F)noc3C3CC3)C4)sc2c1
EC50 (Bile acid receptor [8]): < 500 nM

Activity [5]: 125%
SMILES: O=C(O)c1ccc2nc(N3CCC(OCc4c(-c5c(Cl)cccc5Cl)noc4C4CC4)C4CC43)sc2c1 (stereo unspecified)
Activity [6]: 64%

EC50 (Bile acid receptor [8]): 12 nM
AUC(0-t) at 24 h [14]: 2410 ng·h/mL
AUC [15]: 14971 ng·h/g
Cmax [16]: 252 ng/mL
Cmax [17]: 4340 ng/mL
Cmax [18]: 3370 ng/g
Emax [19]: 101%
AUC(0-t) at 24 h [20]: 1180 ng·h/mL
SMILES: O=C(O)c1ccc(-c2csc(N3CCC(OCc4c(-c5c(Cl)cccc5Cl)noc4C4CC4)CC3)n2)cc1
